Type in all cases: functional
One test deals with Trichophyton rubrum. The test can be described thus: Antifungal activity against Trichophyton rubrum after 48 hrs by serial plate dilution method.
A further test has as its system Bacillus subtilis. The test can be described thus: Antibacterial activity against Bacillus subtilis after 24 hrs by broth dilution technique. (In broth dilution the organism is exposed to a series of concentrations in liquid medium.)
In another test the test system is Pseudomonas fluorescens. The experiment in a line: Antibacterial activity against Pseudomonas fluorescens after 24 hrs by broth dilution technique.
The subject of another test is Aspergillus niger. The test can be described thus: Antifungal activity against Aspergillus niger after 48 hrs by serial plate dilution method.
For a further test, the system named is Staphylococcus aureus. The experiment in a line: Antibacterial activity against Staphylococcus aureus after 24 hrs by broth dilution technique.
The next test relates to Candida albicans. The experiment in a line: Antifungal activity against Candida albicans after 48 hrs by serial plate dilution method.

≈ marks a conversion by molar mass, not a printed value.

The term MIC denotes the smallest concentration in the dilution series that meets the test's criterion for growth inhibition. Read a high MIC as a need for much substance.

As for `O=C(O)C(Cc1c[nH]cn1)/N=C/c1c[nH]c2ccccc12` (configuration not stated), the MIC is more than 50 µg/mL with Trichophyton rubrum; 35.1 µg/mL (≈ 124 µM) with Bacillus subtilis; 3.8 µg/mL (≈ 13.5 µM) with Pseudomonas fluorescens; 47.5 µg/mL (≈ 168 µM) against Aspergillus niger; 3.4 µg/mL (≈ 12 µM) with Staphylococcus aureus; more than 50 µg/mL against Candida albicans.

In the case of `O=S(=O)(O)c1cc(O)c(/N=C/c2c[nH]c3ccccc23)c2ccccc12`, the MIC against Trichophyton rubrum is 21.9 µg/mL (≈ 59.8 µM); in the test with Bacillus subtilis, 15.5 µg/mL (≈ 42.3 µM); against Pseudomonas fluorescens, 21.6 µg/mL (≈ 59 µM); in the test on Aspergillus niger it was 21.3 µg/mL (≈ 58.1 µM); in the test with Staphylococcus aureus, more than 50 µg/mL; in the test with Candida albicans, 15.2 µg/mL (≈ 41.5 µM).

In the case of `O=C(O)CC(/N=C/c1c[nH]c2ccccc12)C(=O)O` (configuration not stated), the MIC was found to be 16.2 µg/mL (≈ 62.2 µM) against Trichophyton rubrum; 11.3 µg/mL (≈ 43.4 µM) in the test with Bacillus subtilis; 19.3 µg/mL (≈ 74.2 µM) in the test on Pseudomonas fluorescens; 17.8 µg/mL (≈ 68.4 µM) with Aspergillus niger; 18.5 µg/mL (≈ 71.1 µM) in the test with Staphylococcus aureus; 11.9 µg/mL (≈ 45.7 µM) against Candida albicans.

Regarding `Oc1ccccc1/N=C/c1c[nH]c2ccccc12`, the MIC in the test on Trichophyton rubrum was more than 50 µg/mL; with Bacillus subtilis it was 18.4 µg/mL (≈ 77.9 µM); in the test on Pseudomonas fluorescens, 15.8 µg/mL (≈ 66.9 µM); with Aspergillus niger, more than 50 µg/mL; with Staphylococcus aureus, 35.9 µg/mL (≈ 152 µM); in the test on Candida albicans, 28.4 µg/mL (≈ 120 µM).

Consider `CC(C)C(/N=C/c1c[nH]c2ccccc12)C(=O)O` (configuration not stated), for which the MIC against Trichophyton rubrum was more than 50 µg/mL; in the test with Bacillus subtilis it was 42.5 µg/mL (≈ 174 µM); in the test with Pseudomonas fluorescens, 38.1 µg/mL (≈ 156 µM); in the test with Aspergillus niger it was more than 50 µg/mL; in the test on Staphylococcus aureus, 16.8 µg/mL (≈ 68.8 µM); against Candida albicans, 26.8 µg/mL (≈ 110 µM).

Regarding `O=C(O)CCC(/N=C/c1c[nH]c2ccccc12)C(=O)O` (configuration not stated), the MIC with Trichophyton rubrum is more than 50 µg/mL; against Bacillus subtilis it was 48.2 µg/mL (≈ 176 µM); in the test with Pseudomonas fluorescens it was 5.7 µg/mL (≈ 20.8 µM); against Aspergillus niger, more than 50 µg/mL; against Staphylococcus aureus, 19.2 µg/mL (≈ 70 µM); in the test on Candida albicans, 12.5 µg/mL (≈ 45.6 µM).

With `CC(C)CC(/N=C/c1c[nH]c2ccccc12)C(=O)O` (configuration not stated), the MIC in the test on Trichophyton rubrum was more than 50 µg/mL; against Bacillus subtilis it was 12.1 µg/mL (≈ 46.8 µM); against Pseudomonas fluorescens it was more than 50 µg/mL; against Aspergillus niger, more than 50 µg/mL; against Staphylococcus aureus, 35.3 µg/mL (≈ 137 µM); in the test with Candida albicans, 19.9 µg/mL (≈ 77 µM).

(Values after ChEMBL document CHEMBL1149775, “Synthesis, characterization and biological activity of Schiff base analogues of indole-3-carboxaldehyde” (2008).)
